# Experimental data from PubChem BioAssay AID1996.
# Conditions: buffer; pH 7.4; 200.0 µM
row,Structure (SMILES),solubility kinetic
1,O=C(Nc1ccc(C2SCCS2)cc1)c1ccccc1,1.4 µg/mL
2,COc1cccc(CNC(=O)CCCSc2ccccc2)c1,35 µg/mL
3,N/C(=N\OC(=O)c1cccc2ccccc12)c1ccncc1,31.3 µg/mL
4,CCCCNC(=S)N1CCn2cccc2C1c1ccccc1 (stereo not given),5.5 µg/mL
5,Cc1cccc(Nc2ccc(C(=O)O)cc2[N+](=O)[O-])c1C,> 42.9 µg/mL
6,O=C(COC(=O)c1cccc(O)c1)NC(=O)Cc1ccccc1,> 47 µg/mL
7,O=C(O)c1ccc2c(c1)C(=O)N(c1ccc([N+](=O)[O-])cn1)C2=O,> 47 µg/mL
8,Cc1ccc(C(=O)NCC(=O)NC2CC2)cc1,33.4 µg/mL
9,O=C(COC(=O)CC1CCCC1)Nc1ccc(OC(F)F)cc1,42.1 µg/mL
10,COc1cc(SC)ccc1C(=O)NCCCn1ccnc1,> 45.8 µg/mL
11,COc1ccc(NC(=O)CSc2nnc(N)s2)cc1S(=O)(=O)N1CCCCC1,> 66.5 µg/mL
12,O=C(OCC(=O)N1CCOCC1)c1ccc(Cl)cc1[N+](=O)[O-],48.3 µg/mL
13,CC1Cc2ccccc2N1C(=O)COC(=O)c1ccc(Cl)nc1 (stereo not given),11.1 µg/mL
14,O=C(C1CCCO1)N1CCN(c2ccccn2)CC1 (stereo not given),36.8 µg/mL
15,OCCNCCCOc1cc(Cl)ccc1Cl,31.9 µg/mL
16,COc1cccc(NC(=S)Nc2ccc(F)cc2)c1,28.7 µg/mL
17,Cl.O=C(Nc1ncc([N+](=O)[O-])s1)c1cccs1,> 43.8 µg/mL
18,COc1ccc(CN(C)C(=O)COC(=O)c2cc([N+](=O)[O-])ccc2N2CCCC2)c(OC)c1OC,10.2 µg/mL
19,O=c1[nH]c(=S)n(-c2ccc(F)cc2)c(O)c1/C=N/N1CCOCC1,> 52.6 µg/mL
20,Cc1ccc(S(=O)(=O)CCC(=O)Nc2cccc(Cl)c2)cc1,23.9 µg/mL
21,Cn1c(CCNC(=O)c2ccco2)nc2cc([N+](=O)[O-])ccc21,43.1 µg/mL
22,Cc1nn(CC(=O)NC2CC2)c(C)c1S(=O)(=O)NC(C)(C)C,> 49.3 µg/mL
23,CC1CCN(C(=O)C2COc3ccccc3O2)CC1 (stereo not given),> 39.2 µg/mL
24,O=c1[nH]c(O)c(C=NC2CCCCC2)c(=O)[nH]1,> 35.6 µg/mL

row,Structure (SMILES),solubility kinetic
1,Cc1oc(S(=O)(=O)N(C)C)cc1C(=O)Nc1ccc(Cl)cc1,< 0.4 µg/mL
2,Cl.NC(=S)NC(c1ccccc1)c1ccncc1 (stereo not given),39.5 µg/mL
3,O=C(CN1C(=O)NC2(CCCCC2)C1=O)N1CCOCC1,> 44.3 µg/mL
4,CC(=O)N1CCN(C(=O)c2cccc(S(=O)(=O)N3c4ccccc4CC3C)c2)CC1 (stereo not given),> 64.1 µg/mL
5,N#CC1=C(N)NC(=S)C(C(N)=O)C1c1ccc(Cl)cc1Cl (stereo not given),11.7 µg/mL
6,COc1ccccc1CCNC(=O)C1(C)CC1(Cl)Cl (stereo not given),> 45.3 µg/mL
7,COc1ccc(NC(=S)NCCc2ccccc2)c(C)c1,8.5 µg/mL
8,CC(=O)c1ccc(-n2cc(C#N)c(=O)[nH]c2=O)cc1,34.7 µg/mL
9,CCN(c1ccccc1)S(=O)(=O)c1ccc(C(=O)N2CCN(c3ccccc3)CC2)cc1,7 µg/mL
10,COc1ccccc1-n1cc(-c2ccccc2)[nH]c1=S,3 µg/mL
11,O=C(O)C1CCN(C(=O)Cc2ccccc2)CC1,> 37.1 µg/mL
12,CC(=O)c1ccc(N2CCN(CC(O)c3ccccc3)CC2)cc1 (stereo not given),> 48.7 µg/mL
13,Cc1ccc(SCC(=O)NCCCc2ccccc2)cc1,5.7 µg/mL
14,CCCCCCC1CC(=O)NC(=O)N1 (stereo not given),27.8 µg/mL
15,COc1ccc(NC(=O)CCSCCc2ccccn2)cc1OC,49.1 µg/mL
16,CCC(C)c1ccc(S(=O)(=O)N2CCN3CCCC3C2)cc1 (stereo not given),34.1 µg/mL
17,O=C(OCc1nc2ccsc2c(=O)[nH]1)c1ccco1,> 41.4 µg/mL
18,CCCCOC(=O)c1ccc(OC(=O)N2CCOCC2)cc1,> 46.1 µg/mL
19,CCN(c1ccccc1)S(=O)(=O)c1ccc(Cl)c(NC(=O)CNCc2ccccc2OC)c1,3.7 µg/mL
20,CCn1c2ccccc2c2cc(CC(N)=O)ccc21,8 µg/mL
21,O=C(COC(=O)c1cccc(OC(F)F)c1)NCC1CCCO1 (stereo not given),> 49.4 µg/mL
22,CCn1c(SCc2ccccc2)nc2c(c1=O)SCC2,13.5 µg/mL
23,O=C(Nc1cccc(NC(=O)c2ccco2)c1)c1ccccc1,45.9 µg/mL
24,Cc1cc(Cl)cc(C)c1OCCCCCn1ccnc1,30.7 µg/mL

row,Structure (SMILES),solubility kinetic
1,COc1ccc(OC)c(N/C(N)=N/c2nc(C)cc(C)n2)c1,40.5 µg/mL
2,CN(C)C(=O)CSc1nc2ccc(N3C(=O)c4ccccc4C3=O)cc2s1,3.1 µg/mL
3,Cc1cc(NC(=O)COC(=O)c2cccc(O)c2)no1,> 41.4 µg/mL
4,CC1CCc2sc(C(=O)Nc3ccc(C(N)=O)cc3)cc2C1 (stereo not given),3.4 µg/mL
5,Cc1ccc(NC(=O)Nc2cc(S(C)(=O)=O)ccc2Cl)cc1,1.1 µg/mL
6,O=C(CC(c1ccccc1)c1ccccc1)Nc1ccc(O)cc1,31.7 µg/mL
7,COC(=O)c1ccc(NC(=S)NC(=O)C2CCC2)cc1,4.9 µg/mL
8,O=C(NC1CCCCC1)C(=S)N1CCOCC1,> 38.5 µg/mL
9,CC(OC(=O)C1=COCCO1)C(=O)Nc1ccccc1C#N (stereo not given),38.8 µg/mL
10,Cc1ccc(C(=O)COC(=O)CN2C(=O)C3C4CCC(C4)C3C2=O)cc1C (stereo not given),46.2 µg/mL
11,COC(=O)c1ccc(Nc2c([N+](=O)[O-])c(=O)oc3ccccc23)cc1,4.1 µg/mL
12,COC(=O)c1ccccc1CSc1nsc(C)c1C#N,< 0.3 µg/mL
13,CCOc1cc(/C=C2\NC(=O)NC2=O)ccc1OC(C)C(=O)O (stereo not given),> 48 µg/mL
14,Cc1cc(C)c(C)c(S(=O)(=O)NCCCn2ccnc2)c1C,39.8 µg/mL
15,Cc1ccc(CNC(=O)CNC(=O)c2ccc(Br)o2)cc1,14.6 µg/mL
16,CCCC(=O)Nc1ccc(C2C(=O)c3ccccc3C2=O)cc1,> 46.1 µg/mL
17,CCn1c(SCC(N)=O)nnc1-c1ccc2c(c1)OCO2,> 46 µg/mL
18,O=C(c1ccccc1F)N1C(=O)c2cccc3cccc1c23,< 0.6 µg/mL
19,Cc1cc(N2CCN(C(=O)c3ccco3)CC2)c2ccccc2n1,44.7 µg/mL
20,CCCC(=O)Nc1c(C(=O)OCC)oc2ccccc12,> 41.3 µg/mL
21,Cc1ccc(S(=O)(=O)N2CCC[C@H]2C(=O)OCC(=O)Nc2ccc3c(c2)OCO3)cc1,34.3 µg/mL
22,COc1cc(NC(=O)CN2CCCCCC2)cc(OC)c1,> 43.9 µg/mL
23,CCOc1ccc(OCc2ccc(C(=O)NC(C)(C)C)o2)cc1,8.8 µg/mL
24,CCOc1ccc(-c2nc(CCl)cs2)cc1.Cl,8.5 µg/mL

row,Structure (SMILES),solubility kinetic
1,CN(Cc1ccc(F)cc1)C(=O)CN1C(=O)c2ccccc2S1(=O)=O,49 µg/mL
2,Cc1ccc(NC(=O)Nc2ccccc2)nc1,2.6 µg/mL
3,C=CCOc1ccc(CNCc2cccnc2)cc1.Cl,> 43.6 µg/mL
4,Cn1ccnc1C(OC(=O)c1ccccc1)C(F)(F)F (stereo not given),> 42.6 µg/mL
5,CC1(C)CC(C(N)=S)CCO1 (stereo not given),23.5 µg/mL
6,Cn1cnnc1SCC(=O)NC1CCCCCC1,> 40.3 µg/mL
7,O=C(Cn1cncn1)N/N=C/c1ccccc1Cl,> 39.6 µg/mL
8,Cl.ClC(CCN1CCN(Cc2ccccc2)CC1)c1ccccc1 (stereo not given),> 60.3 µg/mL
9,Cc1nn(CC(=O)c2ccc(Cl)s2)c(C)c1[N+](=O)[O-],> 45 µg/mL
10,Cc1cnc(NCCc2ccccc2)s1,23 µg/mL
11,Clc1ccc(CN2CCSCC2)cc1Cl,2.6 µg/mL
12,O=C(OCN1C(=O)c2ccccc2C1=O)c1cccc(OC(F)F)c1,0.9 µg/mL
13,O=C(COC(=O)c1ccc([N+](=O)[O-])o1)Nc1ncc(Cl)cc1Cl,> 54 µg/mL
14,O=c1[nH]c2ccccc2[nH]c1=O,> 24.3 µg/mL
15,Cc1c(C(=O)OCC(=O)N2C(C)CCCC2C)oc2ccccc12 (stereo not given),44.1 µg/mL
16,O=C(Cn1cnc([N+](=O)[O-])n1)NC1CC1,> 31.7 µg/mL
17,CCCCN(CCCC)c1nc(-c2ccncc2)nc2ccccc12,< 0.2 µg/mL
18,CC(C)(C)N(Cc1ccccc1)C(=O)c1cc2ccccc2o1,1.1 µg/mL
19,CCC(C)NC(=O)c1ccc2c(Cl)c3c(nc2c1)CCC3 (stereo not given),9.9 µg/mL
20,Cc1cc(C)cc(NC(=O)Cn2cc(C=O)c3ccccc32)c1,< 0.3 µg/mL
21,CC(=O)c1cn(CC(=O)Nc2ccc(C)c(C)c2)c2ccccc12,< 0.3 µg/mL
22,O=C(Cc1cccc2ccccc12)Nc1ccc(O)cc1C(=O)O,> 48.2 µg/mL
23,CCOC1C(=O)NC(=O)N1Cc1ccccc1 (stereo not given),29.8 µg/mL
24,Cc1cccc(Nc2cc(=O)n(C)c(=O)[nH]2)c1,> 34.7 µg/mL

row,Structure (SMILES),solubility kinetic
1,CC(C)Cn1c(S(=O)(=O)O)nc2ccccc21,> 38.1 µg/mL
2,Cc1cc(C(=O)c2cnc(/N=C/N(C)C)s2)c(F)cc1Cl,13.6 µg/mL
3,O=C(N/C(=C\c1ccc(Cl)cc1)C(=O)N1CCOCC1)c1ccco1,> 54.1 µg/mL
4,Cc1cc(C(=O)OCC(=O)Nc2ccc(F)cc2)c(C)n1C1CC1,6.2 µg/mL
5,CC(=O)c1ccc2noc(-c3cccc(F)c3)c2c1,6.5 µg/mL
6,O=C(COC(=O)COc1ccccc1)NCCC1=CCCCC1,38.5 µg/mL
7,CCOC(=O)c1c(C)[nH]c(C(=O)OCC(=O)NCc2ccc(C)cc2)c1C,2.6 µg/mL
8,Cc1ccsc1C1CC(=O)Nc2ccccc2S1 (stereo not given),35.6 µg/mL
9,CN(C(=O)COC(=O)CCC(=O)c1ccc(F)cc1)C1CCCCC1,> 52.4 µg/mL
10,COc1ccccc1NCCC(=O)OCC(=O)Nc1ccccc1F,> 52 µg/mL
11,O=C1CCCN1CCCNC(=S)Nc1ccccc1Cl,38.4 µg/mL
12,Cn1c(O)c(C=Nc2cccc(C(F)(F)F)c2)c(=O)n(C)c1=O,10.6 µg/mL
13,CCOC(=O)c1cccc(NC(=O)N2CCOCC2)c1,> 41.7 µg/mL
14,O=C(/C=C/c1ccc(F)cc1)Nc1cccc(S(=O)(=O)N2CCOCC2)c1,13.9 µg/mL
15,CCCCn1c(=O)c(C(=O)Nc2ccc(C)cn2)c(O)c2ccccc21,< 0.3 µg/mL
16,CN1CCN(c2ccc(CNS(=O)(=O)c3ccsc3)cc2)CC1,22.7 µg/mL
17,CCOc1ccccc1NC(=O)c1cc(=O)[nH]c2ccc(S(=O)(=O)N3CCOCC3)cc12,21.4 µg/mL
18,CS(=O)(=O)N1CCC(C(=O)NCc2ccccc2)CC1,> 44.5 µg/mL
19,CC1CCCC(C)N1C(=O)COC(=O)CN1C(=O)c2ccccc2C1=O (stereo not given),> 53.8 µg/mL
20,C[C@H](NC(=O)C(c1ccccc1)c1ccccc1)c1ccccc1,8.5 µg/mL
21,CC(=O)C1=C(O)C(=O)N(CCO)C1c1ccccc1 (stereo not given),> 39.2 µg/mL
22,Brc1ccccc1-c1cnco1,8.5 µg/mL
23,CN(c1ccccc1)S(=O)(=O)c1cccc(NC(=O)C2CCCO2)c1 (stereo not given),> 54.1 µg/mL
24,CCOC(=O)/C(=C/Nc1ccc(F)c(F)c1)[N+](=O)[O-],> 40.8 µg/mL
